Results from ChEMBL document CHEMBL1201862, “PubChem BioAssay data set” (2004).
Activity calls are given as the source filed them.

What was measured:
[1] = molecular target: Kallikrein-7 (Homo sapiens, UniProt P49862); experiment: Fluorescence Intensity-based biochemical primary high throughput dose response assay to identify activators of kallikrein-7 (K7) zymogen.
[2] = molecular target: T1, Apoptotic protease-activating factor 1 (Homo sapiens, UniProt O14727); format: functional;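 on EC50 Mean: caspase-3 cleavage of fluorogenic Rh110 DEVD substrate downstream of apoptosome activation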
T1 sequence (O14727 whole entry): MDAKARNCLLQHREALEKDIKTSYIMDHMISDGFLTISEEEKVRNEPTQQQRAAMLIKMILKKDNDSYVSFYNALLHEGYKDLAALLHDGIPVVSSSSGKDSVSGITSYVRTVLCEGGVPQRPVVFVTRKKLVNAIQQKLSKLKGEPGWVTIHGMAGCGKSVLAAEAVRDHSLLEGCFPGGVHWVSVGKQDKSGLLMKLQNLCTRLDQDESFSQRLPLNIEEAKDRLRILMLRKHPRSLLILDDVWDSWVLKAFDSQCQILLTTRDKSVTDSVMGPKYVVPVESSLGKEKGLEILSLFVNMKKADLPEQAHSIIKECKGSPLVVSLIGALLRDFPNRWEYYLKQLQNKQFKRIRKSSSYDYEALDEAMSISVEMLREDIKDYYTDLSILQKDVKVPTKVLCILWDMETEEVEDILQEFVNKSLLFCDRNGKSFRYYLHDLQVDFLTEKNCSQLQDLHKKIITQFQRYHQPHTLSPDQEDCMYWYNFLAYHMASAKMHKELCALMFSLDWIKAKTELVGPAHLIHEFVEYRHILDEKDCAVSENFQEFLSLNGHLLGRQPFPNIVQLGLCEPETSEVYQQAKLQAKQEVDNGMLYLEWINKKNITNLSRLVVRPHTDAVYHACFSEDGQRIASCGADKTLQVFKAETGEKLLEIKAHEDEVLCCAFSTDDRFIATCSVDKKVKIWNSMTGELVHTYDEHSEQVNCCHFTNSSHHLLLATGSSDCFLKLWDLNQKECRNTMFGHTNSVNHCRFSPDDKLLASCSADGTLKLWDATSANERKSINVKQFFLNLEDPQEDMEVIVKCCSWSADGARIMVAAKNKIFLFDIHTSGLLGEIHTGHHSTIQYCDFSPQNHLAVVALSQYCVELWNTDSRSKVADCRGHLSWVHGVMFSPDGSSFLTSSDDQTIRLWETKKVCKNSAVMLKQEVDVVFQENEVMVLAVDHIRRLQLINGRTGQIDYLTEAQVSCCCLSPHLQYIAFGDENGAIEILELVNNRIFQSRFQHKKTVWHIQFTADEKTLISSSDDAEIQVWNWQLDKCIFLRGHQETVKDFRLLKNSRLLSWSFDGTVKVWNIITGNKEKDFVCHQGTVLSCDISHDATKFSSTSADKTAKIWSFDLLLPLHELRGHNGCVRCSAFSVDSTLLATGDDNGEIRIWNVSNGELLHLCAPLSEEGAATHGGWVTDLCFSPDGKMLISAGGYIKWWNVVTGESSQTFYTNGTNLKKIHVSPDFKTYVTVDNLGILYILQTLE

[3] = molecular target: T2, DNA repair protein RAD52 homolog (Homo sapiens, UniProt P43351); format: functional, biochemical
T2 sequence (P43351 whole entry): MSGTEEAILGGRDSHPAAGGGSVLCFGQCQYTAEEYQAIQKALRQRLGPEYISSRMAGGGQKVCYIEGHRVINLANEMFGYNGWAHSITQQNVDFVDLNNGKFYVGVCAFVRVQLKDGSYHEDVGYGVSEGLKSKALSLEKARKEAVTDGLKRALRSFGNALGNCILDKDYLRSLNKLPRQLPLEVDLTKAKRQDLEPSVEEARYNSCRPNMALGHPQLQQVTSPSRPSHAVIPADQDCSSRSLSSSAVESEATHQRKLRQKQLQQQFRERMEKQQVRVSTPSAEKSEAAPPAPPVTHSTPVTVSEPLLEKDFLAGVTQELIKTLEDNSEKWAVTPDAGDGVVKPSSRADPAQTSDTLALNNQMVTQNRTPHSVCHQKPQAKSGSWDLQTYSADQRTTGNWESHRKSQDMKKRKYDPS

[4] = HeLa cell cytotoxicity, dose response, cytotoxicity control for MgcRacGAP inhibitor project (AID 624300); format: functional
[5] = molecular target: T3, Rac GTPase-activating protein 1 (Homo sapiens, UniProt Q9H0H5); experiment: MgcRacGAP GTPase-activating activity inhibitors, confirmation, biochemical, ADP Hunter fluorescence, primary and confirmatory (AID 624330); format: functional
T3 sequence (Q9H0H5 whole entry): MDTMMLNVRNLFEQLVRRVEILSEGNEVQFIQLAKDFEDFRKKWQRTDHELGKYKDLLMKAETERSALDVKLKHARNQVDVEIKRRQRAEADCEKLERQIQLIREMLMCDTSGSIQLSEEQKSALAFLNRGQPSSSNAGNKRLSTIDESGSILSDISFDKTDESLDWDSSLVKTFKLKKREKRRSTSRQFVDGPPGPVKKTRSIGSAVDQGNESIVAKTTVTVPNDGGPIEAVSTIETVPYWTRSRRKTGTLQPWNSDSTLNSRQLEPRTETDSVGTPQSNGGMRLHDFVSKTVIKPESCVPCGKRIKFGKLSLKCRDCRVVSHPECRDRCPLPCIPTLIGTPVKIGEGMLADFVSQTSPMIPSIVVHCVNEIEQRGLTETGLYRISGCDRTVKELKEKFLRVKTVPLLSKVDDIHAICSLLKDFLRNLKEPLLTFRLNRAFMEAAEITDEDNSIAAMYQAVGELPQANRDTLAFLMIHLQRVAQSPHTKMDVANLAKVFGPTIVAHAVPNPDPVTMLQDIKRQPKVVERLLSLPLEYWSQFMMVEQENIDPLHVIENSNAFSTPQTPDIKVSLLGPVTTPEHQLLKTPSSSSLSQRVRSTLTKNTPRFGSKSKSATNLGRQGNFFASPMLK

[6] = molecular target: Glucose-6-phosphate 1-dehydrogenase (Homo sapiens, UniProt P11413); experiment: human G6PD enzyme inhibitors, dose response, selectivity assay for P. falciparum G6PD inhibitor project, biochemical, fluorescence (AID 504792); format: functional
[7] = molecular target: T4, Orexin/Hypocretin receptor type 1 (Homo sapiens, UniProt O43613); experiment: Homogeneous Time Resolved Fluorescence (HTRF)-based cell-based high throughput dose response assay for antagonists of the orexin 1 receptor (OX1R; HCRTR1). [Related pubchem assays (depositor defined):AID434989, AID435008, AID463079, AID485270, AID492963, AID492964, AID492965, AID493232, AID504717, AID504718]; format: functional
T4 sequence (O43613 whole entry): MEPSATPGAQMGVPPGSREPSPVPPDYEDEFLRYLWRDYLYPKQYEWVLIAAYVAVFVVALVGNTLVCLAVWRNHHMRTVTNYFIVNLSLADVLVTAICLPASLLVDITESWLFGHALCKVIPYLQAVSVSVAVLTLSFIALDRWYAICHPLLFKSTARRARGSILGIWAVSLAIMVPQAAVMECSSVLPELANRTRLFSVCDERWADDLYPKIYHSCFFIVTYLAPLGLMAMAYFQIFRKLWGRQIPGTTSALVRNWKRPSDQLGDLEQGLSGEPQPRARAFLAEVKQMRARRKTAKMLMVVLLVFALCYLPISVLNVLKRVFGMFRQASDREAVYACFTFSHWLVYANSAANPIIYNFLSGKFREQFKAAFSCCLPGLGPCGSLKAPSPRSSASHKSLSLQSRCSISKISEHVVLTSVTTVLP

[8] = molecular target: T4, Orexin/Hypocretin receptor type 1; experiment: Fluorescence-based cell-based high throughput dose response assay for antagonists of the orexin 1 receptor (OX1R; HCRTR1). [Related pubchem assays (depositor defined):AID434989, AID435008, AID463079, AID485270, AID492963, AID492964, AID492965, AID493232, AID504717, AID504718]; format: functional
[9] = test system: CHO-K1; experiment: (§1) Counterscreen for antagonists of the orexin 1 receptor (OX1R; HCRTR1): Homogeneous time resolved fluorescence (HTRF)-based cell-based dose response assay to identify antagonists of the parental CHO-K1 cell line. [Related pubchem assays (depositor defined):AID434989, AID435008, AID463079, AID485270, AID492963, AID492964, AID492965, AID493232, AID504699, AID504701]; format: functional; conditions: Cricetulus griseus
[10] = molecular target: T5, Orexin receptor type 2 (Homo sapiens, UniProt O43614); experiment: Counterscreen assay for antagonists of the orexin 1 receptor (OX1R; HCRTR1): Homogeneous Time Resolved Fluorescence (HTRF)-based cell-based dose response assay for antagonists of the orexin 2 receptor (OX2R; HCRTR2), run by assay provider.; format: functional
T5 sequence (O43614 whole entry): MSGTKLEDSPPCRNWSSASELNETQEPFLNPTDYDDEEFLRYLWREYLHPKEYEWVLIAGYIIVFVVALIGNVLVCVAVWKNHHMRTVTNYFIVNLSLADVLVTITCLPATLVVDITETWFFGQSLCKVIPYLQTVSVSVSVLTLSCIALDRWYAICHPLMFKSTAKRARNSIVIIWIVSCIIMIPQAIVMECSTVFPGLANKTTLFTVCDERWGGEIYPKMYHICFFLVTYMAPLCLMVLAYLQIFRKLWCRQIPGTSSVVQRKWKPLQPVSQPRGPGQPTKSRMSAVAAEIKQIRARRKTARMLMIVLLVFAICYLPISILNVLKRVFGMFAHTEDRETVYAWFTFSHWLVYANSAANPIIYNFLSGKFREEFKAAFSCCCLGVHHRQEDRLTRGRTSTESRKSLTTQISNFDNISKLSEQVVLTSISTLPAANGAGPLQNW

[11] = molecular target: Beta-galactosidase (Escherichia coli, UniProt Q8VNN2); experiment: PubChem AID 485352; format: functional
[12] = molecular target: T5, Orexin receptor type 2; experiment: Counterscreen assay for antagonists of the orexin 1 receptor (OX1R; HCRTR1): Fluorescence-based cell-based dose response assay for antagonists of the orexin 2 receptor (OX2R; HCRTR2), run by assay provider.; format: functional
[13] = as §1, with “Fluorescence-based” for “Homogeneous time resolved fluorescence (HTRF)-based”, “cell-based high throughput” for “cell-based”, “CHO” for “CHO-K1”; format: functional
[14] = molecular target: T6, Type-1 angiotensin II receptor (Homo sapiens, UniProt P30556); experiment: AT1 receptor antagonists, dose response, selectivity assay for APJ receptor antagonist project, cell-based, uHTS hits (AID 463214); format: functional;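 further: antagonist potency against angiotensin II stimulated AT1 response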
T6 sequence (P30556 whole entry): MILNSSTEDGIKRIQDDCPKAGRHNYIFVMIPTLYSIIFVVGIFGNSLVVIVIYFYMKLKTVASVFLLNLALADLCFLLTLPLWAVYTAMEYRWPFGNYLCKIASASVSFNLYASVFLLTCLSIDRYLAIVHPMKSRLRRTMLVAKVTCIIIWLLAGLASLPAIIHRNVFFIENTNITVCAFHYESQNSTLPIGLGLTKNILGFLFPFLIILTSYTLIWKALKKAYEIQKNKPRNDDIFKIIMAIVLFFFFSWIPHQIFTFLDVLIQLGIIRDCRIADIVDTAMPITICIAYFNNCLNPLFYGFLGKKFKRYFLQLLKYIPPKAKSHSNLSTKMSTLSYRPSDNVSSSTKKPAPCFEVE

[15] = molecular target: T1, Apoptotic protease-activating factor 1; experiment: SAR analysis of small molecule Activators of Apaf-1 in a Fluorescent assay.; format: functional; conditions: read-out: EC50_Mean

Chain of Kallikrein-7 (P49862 whole entry): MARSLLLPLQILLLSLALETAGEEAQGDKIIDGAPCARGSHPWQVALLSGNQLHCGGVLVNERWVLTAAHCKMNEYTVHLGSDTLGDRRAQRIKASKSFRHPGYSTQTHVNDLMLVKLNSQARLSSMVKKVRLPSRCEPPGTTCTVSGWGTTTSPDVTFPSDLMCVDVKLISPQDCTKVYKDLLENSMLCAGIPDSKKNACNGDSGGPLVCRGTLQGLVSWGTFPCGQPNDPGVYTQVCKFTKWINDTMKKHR
Chain of Beta-galactosidase (Q8VNN2 whole entry): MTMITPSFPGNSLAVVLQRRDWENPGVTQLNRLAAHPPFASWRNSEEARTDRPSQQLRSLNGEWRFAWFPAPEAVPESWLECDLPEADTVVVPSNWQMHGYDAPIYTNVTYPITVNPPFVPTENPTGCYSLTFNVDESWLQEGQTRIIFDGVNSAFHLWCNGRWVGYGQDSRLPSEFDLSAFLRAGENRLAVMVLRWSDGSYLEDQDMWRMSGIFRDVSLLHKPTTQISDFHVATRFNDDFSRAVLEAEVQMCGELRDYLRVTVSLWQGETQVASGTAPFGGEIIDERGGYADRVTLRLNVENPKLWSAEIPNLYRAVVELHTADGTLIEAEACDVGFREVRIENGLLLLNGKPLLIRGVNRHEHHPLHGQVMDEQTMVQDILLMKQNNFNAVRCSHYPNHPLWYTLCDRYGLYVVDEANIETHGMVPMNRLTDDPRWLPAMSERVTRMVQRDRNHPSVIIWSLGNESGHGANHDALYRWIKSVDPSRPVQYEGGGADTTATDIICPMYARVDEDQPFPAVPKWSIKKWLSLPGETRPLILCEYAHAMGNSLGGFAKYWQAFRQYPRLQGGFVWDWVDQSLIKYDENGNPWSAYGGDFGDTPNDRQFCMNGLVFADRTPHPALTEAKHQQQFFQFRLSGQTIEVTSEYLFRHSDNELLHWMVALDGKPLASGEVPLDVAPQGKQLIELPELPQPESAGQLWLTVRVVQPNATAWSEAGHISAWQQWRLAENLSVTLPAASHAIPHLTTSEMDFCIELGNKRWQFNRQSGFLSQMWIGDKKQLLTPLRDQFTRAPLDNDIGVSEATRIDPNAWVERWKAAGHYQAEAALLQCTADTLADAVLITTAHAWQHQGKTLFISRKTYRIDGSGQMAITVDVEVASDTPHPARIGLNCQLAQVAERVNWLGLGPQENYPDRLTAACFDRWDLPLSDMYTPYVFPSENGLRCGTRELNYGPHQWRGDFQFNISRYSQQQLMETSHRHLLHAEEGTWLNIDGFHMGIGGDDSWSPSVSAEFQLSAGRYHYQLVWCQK
Chain of Glucose-6-phosphate 1-dehydrogenase (P11413 whole entry): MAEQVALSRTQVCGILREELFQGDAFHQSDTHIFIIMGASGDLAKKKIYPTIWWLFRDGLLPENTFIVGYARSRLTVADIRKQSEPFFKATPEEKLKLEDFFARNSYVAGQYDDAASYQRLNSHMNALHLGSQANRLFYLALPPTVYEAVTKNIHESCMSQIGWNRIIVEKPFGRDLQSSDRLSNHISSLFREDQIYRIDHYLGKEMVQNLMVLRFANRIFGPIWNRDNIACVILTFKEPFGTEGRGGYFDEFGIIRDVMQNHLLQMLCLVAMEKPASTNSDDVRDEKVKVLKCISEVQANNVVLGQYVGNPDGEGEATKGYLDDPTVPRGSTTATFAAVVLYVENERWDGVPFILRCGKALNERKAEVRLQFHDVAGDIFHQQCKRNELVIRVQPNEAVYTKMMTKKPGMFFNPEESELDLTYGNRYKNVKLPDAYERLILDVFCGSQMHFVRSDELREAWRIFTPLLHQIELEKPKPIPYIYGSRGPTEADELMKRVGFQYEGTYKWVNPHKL

SMILES: CN(C)/C=N/c1ccc2[nH]c3c4ccccc4nc-3cc2c1
- EC50 [1]: > 2.57 µM (active)
- IC50 [2]: 30.7 µM (active)
- AC50 [3]: 3.13 µM (active)
- CC50 [4]: 100 µM (active)
- IC50 [5]: 52.8 µM (active)
- IC50 [6]: > 80 µM (inactive)

SMILES: CN(/N=C/c1cc([N+](=O)[O-])ccc1O)c1ccccc1
- IC50 [7]: 2.39 µM (active)
- IC50 [8]: 2.48 µM (active)
- IC50 [9]: > 66.2 µM (inactive)
- IC50 [10]: > 50 µM (inactive)
- EC50 [11]: > 40 µM (inactive)
- IC50 [12]: > 88.8 µM (inactive)
- IC50 [13]: > 49.7 µM (inactive)
- IC50 [14]: > 40 µM (not active)

SMILES: O=C(O)c1coc(-c2ccc(Cl)cc2)n1
- EC50 [15]: > 100 µM (inactive)

SMILES: COC(=O)c1coc(-c2ccc(Cl)cc2)n1
- EC50 [15]: > 100 µM (inactive)
